Assay results reported in a melting point compilation (Tetko et al.; mined from patent text by program, amines drawn as free bases though some values may be those of a salt).

Row | SMILES | melting point
1 | O=C(C=C(c1cc(Cl)cc(Cl)c1)C(F)(F)F)c1ccc(C(=O)Nc2ncc(Cl)cn2)cc1 | 71 to 76 °C
2 | CN(C)C(=O)Cc1nnc2n1-c1ccc(Cl)cc1C(c1ccccc1)=NC2 | 204 to 206 °C
3 | CC(C)(C)NC(=O)[C@@H]1CN(C(=O)OC(C)(C)C)CCN1C(=O)OCc1ccccc1 | 134 to 135 °C
4 | Cc1c(Sc2ccc(Cl)cc2)c2cc(S(C)(=O)=O)ccc2n1CC(=O)O | 185 to 187 °C
5 | O=C1CCC2=C1C(c1ccc(F)c(I)c1)C1=C(CCS1)N2 (centres undefined) | > 250 °C
6 | CC(C)c1nc(C(C)C)c(CN2CCN(c3ccccc3)CC2)c(-c2ccc(F)cc2)c1CO | 111 to 113 °C
7 | CC(C)(C)OC(=O)N1C[C@@H](Sc2ccccc2)C[C@H]1C(=O)O | 110 to 118 °C
8 | Nc1c(Cl)cccc1CO | 56 to 68 °C
9 | COC(=O)c1cc2c(OC)ccc(OC)c2[nH]1 | 145 to 146 °C
10 | S=c1cc(-c2ccc(Cl)cc2)ss1 | 135 °C
11 | CSCCOc1ccccc1NN | 72.5 to 74.5 °C
12 | O=C1Cc2cc(C(=O)[C@H]3CC[C@H]3C(=O)O)ccc2N1 (relative stereo) | 211 to 212 °C
13 | CN1CCN(c2cc(Cl)cc3c2c(=O)n(Cc2ccc(F)cc2)c(=O)n3Cc2ccccc2)CC1 | 110 to 114 °C
14 | CC(=O)n1c(SC(F)(F)C(F)F)nc(-c2ccccc2)c1-c1ccccc1 | 143 to 144 °C
15 | CC(=O)Nc1ccc(CN2CCC(C(c3ccccc3)c3ccccc3)CC2)cc1 | 182 to 183 °C
16 | Cc1nc2n(c(=O)c1CCN1CCN(c3noc4c(C)cccc34)CC1)CCCS2 | 170 °C
17 | N#Cc1ccc2cc(O)ccc2c1 | 160 to 164 °C
18 | CC(=O)SCC(Cc1ccccc1)C(=O)Nc1cccc(C(=O)N[C@@H](Cc2ccccc2)C(=O)OCc2ccccc2)c1 (some centres undefined) | 89 to 91 °C
19 | COCOc1cc(CCC(=O)c2c(OC)cc(OC)c(CCC(C)C)c2O)ccc1OC | 93.5 to 94.5 °C
20 | C=CCOc1ccc2c(c1)C(=O)NC(C)(C)O2 | 137 to 138 °C
21 | CCN1Cc2ccccc2C(=O)c2cc(CC(=O)OC)ccc21 | 116 to 119 °C
22 | CC(c1ccccc1)N1CC2Cc3cc4ccccc4n3CC2C1 (centres undefined) | 153 °C
23 | CC(C)n1nc(-c2c(-c3ccccc3)nn3cccc(O)c23)ccc1=O | 229 to 230 °C
24 | CCOC(=O)Cc1c(Cl)cnc2c(NC(=O)c3c(Cl)cccc3Cl)cccc12 | 161 °C
25 | CC(C)c1ccc(C(=O)NC(C)c2sccc2Br)cc1 (centres undefined) | 133 °C

Row | SMILES | melting point
26 | COCC(=O)Nc1ccc2ncnc(Nc3cc(Cl)c(Cl)cc3F)c2c1 | 204 to 206 °C
27 | NCC(=O)NC(Cc1ccccn1)c1ccccc1 (centres undefined) | 75 to 77 °C
28 | N#Cc1c(Cl)c2cc(F)ccc2n(Cc2ccc(F)cc2)c1=O | 236 °C
29 | CCOC(=O)C(NC(=O)OCc1ccccc1)C(=O)OCC | 36.5 to 37 °C
30 | COC1C=C(c2ccc(C#N)cc2)C(OC)O1 (centres undefined) | 71 to 72 °C
31 | Nc1cc(=O)nc(Nc2ccc(Cl)cc2)n1-c1ccccc1 | 233 to 237 °C
32 | CCNC1=NS(=O)(=O)c2cc(Cl)sc2N1 | 274 to 275 °C
33 | COc1ccc(-c2ccc(C(C)=NO)cc2)cc1 | 82 to 84 °C
34 | N#Cc1cnn2c(-c3cccc(C(F)(F)F)c3)ccnc12 | 141 to 142 °C
35 | COc1cccc(OC)c1-c1cc(C(=O)NCC(=O)O)nn1-c1ccc(C(=O)N(C)CCCN(C)C)cc1C(C)C | 160 °C
36 | COc1ccc(-n2ncc(-c3ccc(C=Cc4ccc(-c5nc6ccccc6o5)cc4)cc3)n2)cc1 | 255 °C
37 | CSC(Nc1ccc(NC(=O)OC(C)(C)C)cc1)=C(C#N)C#N | 190 °C
38 | COc1ccc(C(=O)c2cccc(OCc3nc(-c4ccccc4)oc3C)c2)c(O)c1 | 117 to 118 °C
39 | O=C(O)C1CCCc2sc(=O)[nH]c21 (centres undefined) | 192 °C
40 | COCC1COc2cc3ncnc(Nc4ccc(F)c(Cl)c4)c3cc2O1 (centres undefined) | 260 to 285 °C
41 | COC(=O)CCC(=O)c1ccc(-c2ccc(SC)cc2)cc1 | 137 to 140 °C
42 | Cc1ccc(-c2nnc(Cl)nc2-c2ccc(C)cc2)cc1 | 126 to 130 °C
43 | Cc1ccc(N(C=C(C#N)C#N)N=C(C#N)C#N)cc1C | 162 to 163 °C
44 | CSc1ccc(C(=O)C=Cc2ccncc2)cc1 | 133 to 134 °C
45 | O=C(NC1CC1)c1cccc(-c2ccc3c(c2)C(Oc2ccc(Cl)cc2Cl)CC3)c1 (centres undefined) | 179 to 180 °C
46 | CC(C)[C@H](NC(=O)OCc1ccccc1)C(=O)N(CC(=O)O)C1CCCCCC1 | 48 to 51 °C
47 | Cc1nc(OCC#N)c(C#N)c(N2CCc3ccccc3CC2)n1 | 68 to 74 °C
48 | COC(=O)c1c(S(N)(=O)=O)ccn1C | 105 to 107 °C
49 | Nc1ccc(CN2CCN(c3ccc(F)cc3)CC2)cc1 | 130 to 132 °C
50 | O=c1[nH]c2cc(Cl)ccc2c(=O)cc1NCCc1ccccc1 | 284 to 287 °C

Row | SMILES | melting point
51 | CC(C)(C)OC(=O)NOCC(O)c1ccccc1 (centres undefined) | 97 to 99 °C
52 | CN(C)C(=O)C1=NO[C@@H](c2ccccc2)C1 | 59 to 61 °C
53 | COc1ccc(C2=NN(C3CCN(S(=O)(=O)c4cccc5c(N(C)C)cccc45)CC3)C(=O)[C@@H]3CC=CC[C@H]23)cc1OC | 198 to 200 °C
54 | CNC(=O)N(O)C(C)c1ccc(C(F)(F)F)cc1 (centres undefined) | 124 to 125 °C
55 | Nc1ncc(-c2ccc(=O)[nH]n2)c(-c2ccc(F)c(F)c2)n1 | 307 °C
56 | O=C(N1CC([N+](=O)[O-])([N+](=O)[O-])C1)C(F)(F)F | 70 to 71 °C
57 | CCCc1c(OCCCOc2c(C(C)=O)ccc(OCC(=O)O)c2CCC)ccc(C(C)=O)c1O | 124 to 125 °C
58 | CN(CC(=O)O)CC(=O)Nc1cc(Cc2n[nH]c(=O)c3ccccc23)ccc1F | 194 to 198 °C
59 | CCCCNC(=O)NCCC | 70 to 72 °C
60 | COCCc1nc2c(N)nc3c(c2n1CCCCNS(=O)(=O)c1ccc(F)cc1)CCCC3 | 191 to 193 °C
61 | COc1ccc(C(=O)C2CCC(C)(C(=O)O)C2(C)C)cc1 (centres undefined) | 165 to 166 °C
62 | C#CCN1Cc2cccnc2N(c2cccc(Br)c2)C1=O | 118 to 119 °C
63 | CC(C)(C)[S@@](=O)/N=C/c1cc(F)cc(C#N)c1 | 93 to 99 °C
64 | Cc1cccc(N=C(N)N(C)C)c1N1CCOCC1 | 100 °C
65 | O=C1c2ccccc2C(=O)N1CCc1ccc(OC(F)(F)F)c(OC(F)(F)F)c1 | 60 to 61 °C
66 | COc1c(C2CCN(CCCCNC(=O)c3ccc(-c4ccc(C#N)cc4)cc3)CC2)ccc2c1CCCC2 | 154 °C
67 | C=C(c1ccc(-n2cncn2)nc1)C1(c2ccc(F)cc2F)CO1 (centres undefined) | 120 to 122 °C
68 | CCOC(=O)c1cccc2nc(OCC)n(Cc3ccc(-c4ccccc4-c4nnn[nH]4)cc3)c12 | 158 to 159 °C
69 | Fc1ccc(Nc2nc(OCC3CCCCC3)c3[nH]cnc3n2)cc1Cl | 225 to 226 °C
70 | N#CC1=C(C#N)Sc2nc3cc(C#N)ccc3nc2S1 | 218 to 220 °C
71 | CN1CCC(OC2c3ccccc3C(=O)N2c2ccc3ccc(Cl)nc3n2)CC1 (centres undefined) | 204 °C
72 | CC(NC(=O)CCCCCCCCC#CC#CCCCCCCCCC(=O)NC(C)c1ccccc1)c1ccccc1 (centres undefined) | 87.5 to 89 °C
73 | CCCC(=CC(=O)Nc1ccccc1)OC | 104 °C
74 | O=C(O)COc1ccc(C(=C2CCCCCC2)c2ccc(O)cc2)cc1 | 170 to 171 °C
